Data reported in patent US10421784B2, “Cell penetrating peptides for intracellular delivery of molecules” (AADIGEN, LLC, priority 2012, dated 2019).
pIC50, pKd: −log10 of the molar value. Where two headings read alike, the source gives them in different places.

Columns and labels:
Jurkat [1] = assay: Uptake of Cy-5 labelled small peptide (FACS); type: cell-based, Human
Experimental: (§1) Adherent HS68 fibroblasts, HeLa, PC3, MCF-7, SCK3-Her2, PBMC cell lines (from American Type Culture Collection (ATCC)) were cultured in Dulbecco's Modified Eagle's Medium supplemented with 2 mM glutamine, 1% antibiotics (streptomycin 10,000 μg/ml, penicillin, 10,000 IU/ml) and 10% (w/v) foetal calf serum (FCS), at 37° C. in a humidified atmosphere containing 5% CO2. Stock solutions of VEPEP-9/peptide particles were prepared by complexing 1 μM peptide with VEPEP-9 peptides at a molar ratio of 1/20 for 30 min at 37° C. Lower concentrations of VEPEP-9-carrier/peptide (from 500 nM to 1 μM) were obtained by serial dilution of the stock complexes in PBS, in order to preserve the same VEPEP-9-carrier/peptide ratio. Stock solutions of VEPEP-9/siRNA particles were prepared by complexing 100 nM siRNA with VEPEP-9 peptides at a molar ratio of 1/20 for 30 min at 37° C. Lower concentrations of VEPEP-9/siRNA (from 20 nM to 0.125 nM) were obtained by serial dilution of the stock complexes in PBS, in order to preserve the same VEPEP-9/siRNA ratio. 150,000 cells seeded in a 35 mm dish the day prior transfection, were grown to 60% confluence and overlaid with 200 μl of preformed complexes, incubated for 3-5 min, then 400 μl of DMEM were added. After 30 min. incubation at 37° C., 1 ml of fresh DMEM containing 16% foetal calf serum (FCS) was added in order to reach a final FCS concentration of 10%, without removing the overlay of VEPEP-9/cargo complexes. Cells were returned to the incubator for 24 hrs. For cdk2 derived peptides, cell proliferation was monitored after 24 and 48 hrs. For siRNA targeting Cyclin B1, Cyclin B1 mRNA level was determined 24 hrs following transduction, using Quantigen (Pommies Inc.). Data reported are an average of 3 or 4 distinct experiments.
(§2) VEPEP-9a, VEPEP-9c and VEPEP-9f have been used for the delivery of small peptides into different cell lines, including primary cell lines, stem cell lines and challenging cell lines. Cargoes uptake was monitored using fluorescence spectroscopy and FACS analysis. Fluorescently labelled peptides were visualized in the different cell lines using fluorescence microscopy or FACS sorting (Table 4). In most of the cell lines, the uptake of Cy-5 labelled peptide is more than 70% of the cells.

HepG2 [2] = assay: Uptake of Cy-5 labelled small peptide (FACS); type: cell-based, Human
Experimental: as §1, §2

U2OS [3] = assay: Uptake of Cy-5 labelled small peptide (FACS); type: cell-based, Human
Experimental: as §1, §2

MCF7 [4] = assay: Uptake of Cy-5 labelled small peptide (FACS); type: cell-based, Human
Experimental: as §1, §2

MT4 [5] = assay: Uptake of Cy-5 labelled small peptide (FACS); type: cell-based, Human
Experimental: as §1, §2

CEM-SS [6] = assay: Uptake of Cy-5 labelled small peptide (FACS); type: cell-based, Human
Experimental: as §1, §2

HS-68 [7] = assay: Uptake of Cy-5 labelled small peptide (FACS); type: cell-based, Human
Experimental: as §1, §2

Hela [8] = assay: Uptake of Cy-5 labelled small peptide (FACS); type: cell-based, Human
Experimental: as §1, §2

Jurkat [9] = assay: Uptake of Cy-5 labelled PNA (FACS); type: cell-based, Human
Description: (§3) VEPEP-9 peptides have been used for the delivery of nucleic acid analogues (PNA and morpholino) into different cell lines, including primary cell lines and challenging cell lines. […] Uptake was monitored using fluorescence spectroscopy and following biological response (Cyclin B1 knockdown).
(§4) Fluorescently labelled PNA was visualized in the different cell lines using fluorescence microscopy or FACS sorting (Table 5). In most of the cell lines, the uptake of Cy-5 labelled PNA is more than 60% of the cells.

HepG2 [10] = assay: Uptake of Cy-5 labelled PNA (FACS); type: cell-based, Human
Description: as §3, §4

U2OS [11] = assay: Uptake of Cy-5 labelled PNA (FACS); type: cell-based, Human
Description: as §3, §4

MCF7 [12] = assay: Uptake of Cy-5 labelled PNA (FACS); type: cell-based, Human
Description: as §3, §4

MT4 [13] = assay: Uptake of Cy-5 labelled PNA (FACS); type: cell-based, Human
Description: as §3, §4

CEM-SS [14] = assay: Uptake of Cy-5 labelled PNA (FACS); type: cell-based, Human
Description: as §3, §4

HS-68 [15] = assay: Uptake of Cy-5 labelled PNA (FACS); type: cell-based, Human
Description: as §3, §4

Hela [16] = assay: Uptake of Cy-5 labelled PNA (FACS); type: cell-based, Human
Description: as §3, §4

[17] = Fluorescence titration, VEPEP-9/SHM binding
Experimental: (§5) Fluorescence experiments were performed on a PTI spectrofluorimeter at 25° C. in a NaCl 154 mM buffer. Intrinsic Trp-fluorescence of VEPEP-9 was excited at 290 nm and emission spectrum was recorded between 310 and 400 nm, with a spectral band-pass of 2 and 8 nm for excitation and emission, respectively. FITC- or CY5-fluorescence of labelled-peptide or Oligonucleotide were excited at 492 nm and emission recorded between 500 and 580 nm. For VEPEP-9/peptide interaction, 0.5 μM of FITC-labelled peptide was titrated by increasing concentrations of VEPEP-9. For VEPEP-9/oligonucleotide interaction, 200 nM of FITC or CY5-labelled oligodeoxynucleotide (ODN) was titrated by increasing concentrations of VEPEP-9. All measurements were corrected for the dilution and curve fitting were performed by using Grafit software (Erithacus).
Binding of small molecule cargoes has been investigated in detailed depending on the nature of the SHM. Several hydrophobic molecules have been used (Daunomycin, Paclitaxel, doxorubicin, porphyrin), as well as charged molecules (nucleotide, nucleoside and fluorescent dyes).

cultured cells = assay: Cell cycle progression / cyclin B1 levels in cultured cells; type: cell-based; conditions: carrier alone (200 μM)
C2C12 [18] = assay: Uptake of Cy-5 labelled PNA (FACS); type: cell-based, Mouse
Description: as §3, §4

STEM [19] = assay: Uptake of Cy-5 labelled PNA (FACS); type: cell-based, Mouse
Description: as §3, §4

MEF [20] = assay: Uptake of Cy-5 labelled PNA (FACS); type: cell-based, Mouse
Description: as §3, §4

C2C12 [21] = assay: Uptake of Cy-5 labelled small peptide (FACS); type: cell-based, Mouse
Experimental: as §1, with “Cells were returned to the incubator for 24 hrs.” left out, “Data reported are an average of 3 or 4 distinct experiments.” left out
as §2, with “In most of the cell lines, the uptake of Cy-5 labelled peptide is more than 70% of the cells.” left out

STEM [22] = assay: Uptake of Cy-5 labelled small peptide (FACS); type: cell-based, Mouse
Experimental: as §1, with “Cells were returned to the incubator for 24 hrs.” left out, “Data reported are an average of 3 or 4 distinct experiments.” left out
as §2, with “In most of the cell lines, the uptake of Cy-5 labelled peptide is more than 70% of the cells.” left out

MEF [23] = assay: Uptake of Cy-5 labelled small peptide (FACS); type: cell-based, Mouse
Experimental: as §1, with “Cells were returned to the incubator for 24 hrs.” left out, “Data reported are an average of 3 or 4 distinct experiments.” left out
as §2, with “In most of the cell lines, the uptake of Cy-5 labelled peptide is more than 70% of the cells.” left out

Peptide (C4) = assay: Fluorescence titration, VEPEP-9/cargo binding; conditions: cargo peptide (C4)
Experimental: as §5
(§6) VEPEP-9 peptide form stable complexes with peptides and ODN. The binding of cargos to VEPEP-9 was monitored by fluorescence spectroscopy using the both intrinsic Trp group of VEPEP-9 (3 to 5 Trp-residues) and extrinsic fluorescently labelled cargoes (using Cy3, Cy5 or FITC). Curve fitting reveal that VEPEP-9 strongly binds the different cargoes with dissociation constant in the nanomolar range (Tables 1 and 2 and FIG. 2).
(§7) VEPEP-9 peptides form stable particles with different cargoes including peptide, siRNA, PNA and small aromatic (FIG. 2). The dissociation constant for peptide, siRNA, PNA and small hydrophobic molecule ranges between 10-100 nM, 5-50 nM, 5-50 nM and 0.02 to 0.2 μM, respectively, depending on the nature of the dyes and of the cargoes.

[24] = Fluorescence titration, VEPEP-9/cargo binding; conditions: cargo SHM
Experimental: as §5, §6, §7

siRNA = assay: Fluorescence titration, VEPEP-9/cargo binding; conditions: cargo siRNA
Experimental: as §5, §6, §7

PNA (15 mer -PNA) = assay: Fluorescence titration, VEPEP-9/cargo binding; conditions: cargo PNA (15 mer)
Experimental: as §5, §6, §7

MCF7 [25] = assay: Inhibition of cancer cell proliferation by delivered drugs; type: cell-based; conditions: Homo sapiens
[26] = tested on: SKB3-HEK2 xenografted mice; assay: Survival after intravenous NANOPEP-9/doxorubicin; type: in vivo; conditions: free Doxo (20 mg/Kg), intravenous every 4 days
Experimental: NANOPEP-9 peptides (VEPEP-9a, b, d, f variants) have been used for the delivery of doxorubicin in vivo. The potential of NANOPEP-9 to deliver doxorubicin in vivo was evaluated on SKB3-HEK2 xenografted mice. Doxorubicin was complexed with VEPEP-9 peptide at a molar ratio of 1/20 with NANOPEP-9a, NANOPEP-9f and NANOPEP-9a-PEG. The treatment was started 10 days after tumor inoculation and with 2 mg/kg and 10 mg/Kg doses of drug and injected every 4 days by systemic Intravenous administration and mice were monitored for survival (FIG. 15).

SKB3 = assay: Inhibition of cancer cell proliferation by delivered drugs; type: cell-based; conditions: drug complexed with VEPEP-9f at molar ratio 1/20, read-out: VEPEP-9f IC50

## X1WWRWWAPWARSWWR [VEPEP-9f, X1 is beta-A or S]
Jurkat [1]
  Efficiency (uptake of Cy-5 labelled small peptide): 65%
HepG2 [2]
  Efficiency (uptake of Cy-5 labelled small peptide): 48%
U2OS [3]
  Efficiency (uptake of Cy-5 labelled small peptide): 57%
MCF7 [4]
  Efficiency (uptake of Cy-5 labelled small peptide): 89%
MT4 [5]
  Efficiency (uptake of Cy-5 labelled small peptide): 56%
CEM-SS [6]
  Efficiency (uptake of Cy-5 labelled small peptide): 87%
HS-68 [7]
  Efficiency (uptake of Cy-5 labelled small peptide): 67%
Hela [8]
  Efficiency (uptake of Cy-5 labelled small peptide): 60%
Jurkat [9]
  Efficiency (uptake of Cy-5 labelled PNA): 81%
HepG2 [10]
  Efficiency (uptake of Cy-5 labelled PNA): 71%
U2OS [11]
  Efficiency (uptake of Cy-5 labelled PNA): 89%
MCF7 [12]
  Efficiency (uptake of Cy-5 labelled PNA): 83%
MT4 [13]
  Efficiency (uptake of Cy-5 labelled PNA): 67%
CEM-SS [14]
  Efficiency (uptake of Cy-5 labelled PNA): 78%
HS-68 [15]
  Efficiency (uptake of Cy-5 labelled PNA): 71%
Hela [16]
  Efficiency (uptake of Cy-5 labelled PNA): 78%
[17]; cargo AZT
  Binding: No
[17]; cargo Doxorubicin
  Binding: yes
[17]; cargo FAM-guanosine
  Binding: yes
  pKd: 6.10
[17]; cargo porphyrin
  Binding: yes
  pKd: 6.96
Cultured cells
  effect on cell cycle progression: no effect
C2C12 [18]
  Efficiency (uptake of Cy-5 labelled PNA): 69%
STEM [19]
  Efficiency (uptake of Cy-5 labelled PNA): 88%
MEF [20]
  Efficiency (uptake of Cy-5 labelled PNA): 74%
C2C12 [21]
  Efficiency (uptake of Cy-5 labelled small peptide): 57%
STEM [22]
  Efficiency (uptake of Cy-5 labelled small peptide): 76%
MEF [23]
  Efficiency (uptake of Cy-5 labelled small peptide): 75%
Peptide (C4)
  Binding: yes
[24]
  Binding: Yes
  pKd: 7.00 to 7.70
siRNA
  Binding: yes
  pKd: < 6.70
PNA (15 mer -PNA)
  Binding: Yes
  pKd: < 7.30

## COc1cccc2c1C(=O)c1c(O)c3c(c(O)c1C2=O)C[C@@](O)(C(=O)CO)C[C@@H]3O[C@H]1C[C@H](N)[C@H](O)[C@H](C)O1 [Doxo, doxorubicin]
MCF7 [25]; drug complexed with VEPEP-9a at molar ratio 1/20, read-out: VEPEP-9a IC50
  pIC50: 7.00
MCF7 [25]; drug complexed with VEPEP-9f at molar ratio 1/20, read-out: VEPEP-9f IC50
  pIC50: 6.15
MCF7 [25]; drug complexed with VEPEP-9d at molar ratio 1/20, read-out: VEPEP-9d IC50
  pIC50: 6.77
[26]
  survival time: 16 days
SKB3
  pIC50: 6.22
